In patent US20060223768A1, “Regulation of gene expression” (priority 2003, published 2006):

Experiments:
[1] = system: HCT116 p53+/+ cells; assay: Apoptosis (annexin V FACS, DNA laddering, phase contrast) in HCT116 p53+/+ cells; type: cell-based, human
[2] = system: HCT116 p53−/− cells; assay: Apoptosis (annexin V FACS, DNA laddering, phase contrast) in HCT116 p53−/− cells; type: cell-based, human; conditions: sulindac sulphide 120 μM, 24 and 48 hr
Experimental: HCT116 clones were cultured in DMEM with 10% FCS. All the cell clones were cultured with penicillin 100 units ml^−1 and streptomycin 100 μg ml^−1 at 37° C. in 5% CO2 in air. Other human colorectal cancer cells lines, also defective for DNA mismatch repair (see Branch et al., 1995), were:- LoVo and RKO (p53 wild type); DLD1, LS174T, SW48 and HT29 (all p53 mutant). For transfection the cells were trypsinised and sub-cultured into 6 well plates (10 cm^2) without antibiotics, 1.5×10^5 cells per well. Selected 21-nucleotide RNAs were synthesised and BPLC purified (MWG; Germany) and annealed into siRNA duplexes according to the instructions supplied. 24 h after sub-culture the cells were transfected with siRNA formulated into liposomes (Oligofectamine, Life Technologies) according to the manufacturer's instructions. […] The final volume of culture medium was 1.5 ml per well. Cells were harvested for analysis at various times thereafter as indicated in the results. Each experiment with HCT116 cells was carried out four or more times. Transfection efficiencies were established by transfecting with liposomes containing FITC-dextran (Jiang and Milner, 2002). […]
Cell growth curves were determined by cell counting. […] The fixed cells were pelleted, washed in PBS and resuspended in PBS containing 0.1 μg/ml propidium iodide with 200 U/ml RNase A and analysed by FACS. […]

| SMILES | apoptosis by agents that activate p53 ([1]; HCT116 cells, Zhang et al., 2000 and results not shown) | apoptosis induced by treatment with sulindac [2] | apoptosis induced by treatment with sulindac ([1]; p53+/+ cells, sulindac sulphide 120 μM, 24 and 48 hr) |
| --- | --- | --- | --- |
| O=c1[nH]cc(F)c(=O)[nH]1 [5′ FU, 5-fluorouracil] | induced |  |  |
| CC1=C(CC(=O)O)c2cc(F)ccc2/C1=C\c1ccc([S+](C)[O-])cc1 (stereo not drawn) [Sulindac, sulindac] |  | induced apoptosis | induced apoptosis |
